From patent US12678440B2, “Compositions and methods for treating misfolded protein ocular disorders” (CASE WESTERN RESERVE UNIVERSITY, priority 2020, dated 2026)

Legend:
Type in all cases: cell-based
[1] = test system: P23H mutant mouse rhodopsin fused with Renilla luciferase (Rluc); assay: Rluc (luciferase) reporter assay in Hek293 (RHO^P23H-Rluc) cells; details: for Efficacy, Rluc assay Hek293 (RHO^P23H − Rluc): 24 h, DMSO 0%, Evans Blue −100% controls; for EC50: 24 h compound treatment, dose-response, triplicate
Description: (§1) Two Hek293 stable cell lines, Hek293 (RHO^WT-Rluc) and Hek293 (RHO^P23H-Rluc) cells were generated which stably express the WT and P23H mutant mouse rhodopsin each fused with a Renilla luciferase (Rluc) for the luciferase reporter assay as previously described. Briefly, the Hek 293 cells (ATCC, Manassas, VA, USA) were transfected with the pcDNA3.1 Zeo containing the cDNA of mouse WT or P23H rhodopsin fused with a Rluc 8 (a gift from Dr. Navine Lambert at Augusta University, Augusta, GA USA) and transfected cells were incubated in Dulbecco's modified Eagle's medium (DMEM, Genesee Scientific, E1 Cajon, CA USA) with 10% fetal bovine serum (FBS, Gibco Laboratories, Gaithersburg, MD USA) for 48 h before addition of 400 μg/mL of Zeocin (InvivoGen, San Diego, CA USA) for positive clone selection. Colonies of cells survived from 1 week of Zeocin selection were collected, and expression of WT and P23H rhodopsin were confirmed by a luciferase assay and immunoblotting of rhodopsin with positive bands of monomers at about 70 kD (FIG. 8). The difference of molecular masses between WT and P23H rhodopsin proteins was due to differences in glycosylation, which was also seen in the NIH3T3 cells expressing the WT and P23H rhodopsin proteins.
(§2) The HTS was performed at three facilities, including University of Cincinnati (UC), Case Western Reserve University, and National Center for Advancing Translational Sciences (NCATS), testing a total of six compound collections. These compound collections include: 1) the UC 10K Diversity Set (10,011 compounds), 2) the Life Chemicals 50K Collection (50,560), 3) the Spectrum Collection (2,400 compounds), 4) the LOPAC collection (1,280 compounds), 5) the FDA collection (2,816 compounds), and 6) the NCATS MIPE collection (1,912 compounds). […] For the compound collections 1), 2) and 3), we firstly tested each compound using the P23H rhodopsin luciferase reporter assay at a single dose for once (9.93 to 16.13 μM) in 384-well format, and we identified 2072 compounds with activity scores lower than the cutoff at mean-2SD. Activity scores were normalized using DMSO treated cells as 0% control and the 1 mM Evans Blue treated cells as −100% control. From these hit compounds, we excluded those reported with luciferase inhibitor activities and cherry-picked the rest for hit confirmation. Each hit was tested at 10 μM in the Hek293 (RHO^P23H-Rluc) cells again by the luciferase reporter assay in triplicates, and the confirmed hits with activity scores lower than-50% were then counter screened for their effects on Rluc activity by the recombinant Rluc activity assay, and on WT rhodopsin level by the luciferase reporter assay in the Hek293 (RHO^WT-Rluc) cells at 10 μM in triplicates, respectively. […] Next, we tested the dose responses of these confirmed hits in both the Hek293 (RHO^P23H-Rluc) and the Hek293 (RHO^WT-Rluc) cells and identified compounds that selectively favored the clearance of P23H than WT rhodopsin in a dose-dependent manner (Table 4). For the compound collections 4)-6), we tested each compound directly at 7 or 11 doses using the luciferase reporter assay in the Hek293 (RHO^P23H-Rluc) cells in 1536-well format, and identified 128 compounds with efficacy smaller than-50% and EC50<20 μM.
(§3) The Rluc reporter assay has been described before. HTS was undertaken in 384-well format for the UC 10K Diversity Set, Spectrum Collection and the Life Chemicals 50K diversity set, and in 1536-well format for the FDA, LOPAC, and MIPE collections. Using the 384-well format as an example, Hek (RHO^P23H-Rluc) cells were seeded in 384-well white-wall clear-bottom plates (assay plates) at 3×10^5/mL for 40 μL/well by an 8-channel Multiflo liquid dispenser (Bioteck, Winooski, VT USA). The assay plates were centrifuged at 300×g for 30 s and cultured at 37° C. with 5% CO2 overnight. […]

[2] = test system: WT mouse rhodopsin fused with Renilla luciferase (Rluc); assay: Rluc reporter counter screen in Hek293 (RHO^WT-Rluc) cells; details: for Efficacy, Rluc assay Hek293 (RHO^WT − Rluc): 24 h, DMSO 0%, Evans Blue −100% controls; for EC50: 24 h compound treatment, dose-response, triplicate
Description: as §1, §2, §3

P23H rhodopsin = assay: Image-based (high-content imaging) assay in NIH3T3 (RHO^P23H/GFP) cells; details: for EC50 / Efficacy, Image-based assay NIH3T3 (RHO^P23H/GFP): 24 h; for EC50: 8-10 doses, rhodopsin immunostaining; for Efficacy, Image-based assay NIH3T3 (RHO^P23H/GFP): DMSO 0%, secondary antibody only −100%
Description: Two NIH3T3 stable cell lines, NIH3T3 (RHO^WT/GFP) and NIH3T3 (RHO^P23H/GFP) were shared by Dr. Krzysztof Palczewski's lab who generated them by incorporating the […] DNA constructs to the NIH3T3 cells, respectively, via viral transduction (24, 33). GFP was co-expressed with rhodopsin for positive-clone selection. The expression of the WT and P23H rhodopsin protein was confirmed by immunoblots and immunostaining.
To assess the effect of active compounds on the clearance of P23H rhodopsin in mammalian cells, an image-based assay was performed using NIH3T3 (RHO^WT/GFP) and NIH3T3 (RHO^P23H/GFP) cells, as described previously. Briefly, cells were seeded at 5000 cells per well in 384-well plates and incubated at 37° C. in 5% CO2 for 4 hours until cells were attached to the bottom of the plate. Attached cells were treated with compounds for 24 hours. The assay medium was aspirated, and cells were fixed with 4% paraformaldehyde at 20 μL per well for 20 min at room temperature. Cell membranes were permeabilized with PBS containing 0.1% Triton X-100 (PBST) and then incubated with 50 µg/mL 1D4 anti-rhodopsin antibody at 15 μL/well for 1 hour at room temperature. After three washes with 50 μl/well of PBST, cells were incubated with 15 μL/well Cy3-conjugated goat anti-mouse IgG antibody for 1 hour at room temperature. After three washes with 50 μl/well of PBST, cells were incubated in 50 μl/well of PBS containing 2 μg/mL Hoechst 33342 to stain the nuclei. Finally, the immunostained cells were imaged by an ImageExpress High Content Imaging System (MolecularDevices). Immunofluorescence of rhodopsin was measured by MetaXpress software using the mean of total fluorescence of Cy3 channel per cell per well taken from five fields containing 600-1000 intact cells per well. After normalizing the fluorescence intensities of rhodopsin to the DMSO treated cells as 0% and cells immunostained with secondary antibody only as −100%, dose-response curves for each compound were plotted and fitted by a modified Hill function using the Origin software. The high-content imaging experiments for hit validation were performed at the CWRU drug discovery facility, and the high-content imaging analyses for the MTX co-treatment with BafA1 and MG-132 were undertaken at the University of Pittsburgh Drug Discovery Institute.

| Structure (SMILES) | Efficacy, Rluc assay Hek293 (RHO^P23H − Rluc) [1] | EC50 [1] | Efficacy, Rluc assay Hek293 (RHO^WT − Rluc) [2] | EC50 [2] | EC50 (P23H rhodopsin) | Efficacy, Image-based assay NIH3T3 (RHO^P23H/GFP) (P23H rhodopsin) | EC50 (P23H rhodopsin; listed as MTX) | mean intensity of P23H rhodopsin immunostaining per cell (P23H rhodopsin; MTX alone, dose series) | MTX dose-dependent reduction of P23H rhodopsin immunostaining, co-treatment with BafA1 (P23H rhodopsin; co-treatment 100 nM BafA1) | MTX dose-dependent reduction of P23H rhodopsin immunostaining, addition of MG-132 (P23H rhodopsin; co-treatment 5 μM MG-132) |
| --- | --- | --- | --- | --- | --- | --- | --- | --- | --- | --- |
| CC(=O)OC(CC(=O)[O-])C[N+](C)(C)C (centres unmarked) [CL-001] | −69.4% | 1.1 µM | −44.3% | 1 µM | 2.1 µM | −83.6% |  |  |  |  |
| CC(=O)OC(CC(=O)O)C[N+](C)(C)C (centres unmarked) [CL-002] | −86.1% | 2 µM | −62.0% | 3.4 µM | 1.6 µM | −61.0% |  |  |  |  |
| O=C(O)C1=CC=CC(O)C1O (centres unmarked) [CL-003] | −65.3% | 0.89 µM | −37.7% | 1.5 µM | 0.6 µM | −46.1% |  |  |  |  |
| CC(O)CN (centres unmarked) [CL-004] | −68.6% | 1.6 µM | −45.5% | 0.92 µM | 0.47 µM | −70.7% |  |  |  |  |
| NCC(=O)COP(=O)(O)O [CL-005] | −78.2% | 6.6 µM | −57.9% | 4.2 µM | 1.3 µM | −72.7% |  |  |  |  |
| O=C(NC1CCNCC1)c1n[nH]cc1NC(=O)c1c(Cl)cccc1Cl [CL-006] | −66.2% | 1.7 µM | −42.9% | 1.52 µM | 2.2 µM | −76.4% |  |  |  |  |
| CCn1cnc2c(N)ncnc21 [CL-007] | −72.5% | 13 µM | −51.7% | 11 µM | 2.9 µM | −72.7% |  |  |  |  |
| CCC(C)(O)C(O)C(=O)O (centres unmarked) [CL-008] | −89.5% | 0.93 µM | −52.7% | 0.59 µM | 1.6 µM | −70.1% |  |  |  |  |
| CN(Cc1cnc2nc(N)nc(N)c2n1)c1ccc(C(=O)N[C@@H](CCC(=O)O)C(=O)O)cc1 [CL-009, N-[4-[[(2,4-diamino-6-pteridinyl)methyl]methylamino]benzoyl]-L-glutamic acid] | −53.0% | 0.43 µM |  |  | 3.3 µM | −36.0% | ~3.3 µM | reduced in an MTX dose-dependent manner | entirely abolished | not affected |
